Assay results from patent US4417052A, “Phenyl-lower-alkyl piperidines and pyrrolidines” (Sterling Drug Inc., priority 1981, dated 1983).
Converted amounts (≈) assume the structure as drawn. Structures can show the parent of a compound that is named as a salt. Where two headings read alike, the source gives them in different places.

Legend:
[1] = system: carrageenin-induced foot edema; experiment: inhibition of carrageenin-induced foot edema test (C.E.); assay type: in vivo; conditions: oral; for inhibition in vivo at 4 µmol/kg: dose 0.004 millimoles/kg; for inhibition in vivo at 4 µmol/kg / inhibition in vivo at 20 µmol/kg / inhibition in vivo at 80 µmol/kg / inhibition in vivo at 324 µmol/kg / inhibition in vivo at 5 µmol/kg: read-out: C.E. percent inhibition; for inhibition in vivo at 20 µmol/kg: dose 0.02 millimoles/kg; for inhibition in vivo at 80 µmol/kg: dose 0.08 millimoles/kg; for inhibition in vivo at 5 µmol/kg: dose 0.005 millimoles/kg
Description: (§1) Anti-inflammatory activity was determined using (1) the inhibition of carrageenin-induced foot edema test essentially described by Winter et al., Proc. Soc. Exp. Biol. and Med. 111, 554 (1962) as modified by Van Arman et al., J. Pharmacol. Exptl. Therap. 150, 328 (1965) and (2) a modification of the inhibition of adjuvant-induced arthritis test described by Pierson, J. Chronic Diseases 16, 863 (1963) and Glenn et al., Am. J. Vet. Res. 26, 1180 (1965).
(§2) The N-{2-,3- and 4-[R1 -(phenyl)-C(=X)]-phenyl-lower-alkyl}amines of formulas I, Ia and Ib of the invention have been tested in the carrageenin edema (CE) and adjuvant arthritis (AA) tests and found to have anti-inflammatory activity. For comparative purposes, data obtained in the carrageenin edema test on the reference compound (designated "Ref."), 4[(3-benzoylphenyl)methyl]morpholine, disclosed in French Patent 1,549,342, are also given. All data were obtained on oral administration.

[2] = system: adjuvant-induced arthritis; experiment: inhibition of adjuvant-induced arthritis test (A.A.); assay type: in vivo; conditions: oral; for inhibition in vivo at 5 µmol/kg: dose 0.005 millimoles/kg; for inhibition in vivo at 5 µmol/kg / inhibition in vivo at 20 µmol/kg / inhibition in vivo at 80 µmol/kg / inhibition in vivo at 324 µmol/kg: read-out: A.A. percent inhibition; for inhibition in vivo at 20 µmol/kg: dose 0.02 millimoles/kg; for inhibition in vivo at 80 µmol/kg: dose 0.08 millimoles/kg; for inhibition in vivo at 324 µmol/kg: dose 0.324 millimoles/kg
Description: as §1, §2

[3] = system: herpes simplex virus types 1 and 2; experiment: in vitro anti-viral activity against herpes simplex viruses types 1 and 2 (BSC cell line, monkey kidney); assay type: cell-based; conditions: read-out: MIC (Minimum Inhibitory Concentration)
Description: Monolayers of tissue cultures (BSC, cell line, monkey kidney) were infected with one hundred TCID50 (Tissue Culture Infectious Dose50) of infectious virus. After one hour of virus adsorption, fresh maintenance medium containing various concentrations of the test compounds was added to the monolayers. Cultures were then incubated at 36°-37° C., and after forty-eight and seventy-two hours, cultures were examined microscopically. […] In the presence of an active compound, cells grow normally similar to those in the tissue culture control. Simultaneously with the anti-viral evaluation, the toxicity of each compound was evaluated in separate cultures. Identical concentrations of the test compound were added to the tissue culture monolayers in the absence of virus. Those concentrations of the compound which show toxic effects on the cells were not considered in the anti-viral evaluation.

[4] = system: acetylcholine-induced abdominal constriction; experiment: acetylcholine-induced abdominal constriction test (Ach); assay type: in vivo, mice; conditions: for ED50: Mus musculus, read-out: Ach ED50
Description: J. Pharmacol. Chemotherap. 32, 295 (1968); a modification of the anti-bradykinin test, which is also a primary analgesic screening procedure, described by Berkowitz et al., J. Pharmacol. Exp. Therap. 177, 500-508 (1971), Blane et al., J. Pharm. Pharmacol. 19, 367-373 (1967), Botha et al., Eur. J. Pharmacol. 6, 312-321 (1969) and Deffenu et al., J. Pharm. Pharmacol. 18, 135 (1966); the phenyl-p-quinone-induced writhing test, also a primary analgesic screening test, designed to measure the ability of a test agent to prevent phenyl-p-quinone-induced writhing in mice, described by Pearl and Harris, J. Pharmacol. Exptl. Therap. 154, 319-323 (1966); the rat tail flick radiant thermal heat analgesic (agonist) test described by D'Amour and Smith, J. Pharmacol. Exptl. Therap. 72, 74 (1941) as modified by Bass and VanderBrook, J. Am. Pharm. Assoc. Sci. Ed. 41, 569 (1956); and the phenazocine antagonist test, which is designed to measure the ability of a test agent to antagonize the effect of phenazocine in the above-indicated rat tail flick response test, described by Harris and Pierson, J. Pharmacol. Exptl. Therap. 143, 141 (1964).
The ED50 is the calculated Effective Dose in 50% of the test animals. The abbreviations s.c., p.o. and i.p. stand for subcutaneous, peroral and intraperitoneal routes of administration, respectively. The compounds are identified by the Example numbers above where their preparations are described.

Row | Structure (SMILES) | inhibition in vivo at 80 µmol/kg [2] | ED50 ([4]; po) | inhibition in vivo at 80 µmol/kg [1] | inhibition in vivo at 324 µmol/kg ([1]; dose 0.324 millimoles/kg) | Ach percent inhibition of writhing ([4]; dose 25, s.c.) | other results
1 | CC(CN1CCCCC1CC1CCCCC1)c1cccc(C(O)c2ccc(Cl)cc2)c1 (stereo not drawn) [Example 5, 2-cyclohexylmethyl-1-{2-[3-(α-hydroxy-4-chlorobenzyl)phenyl]propyl}piperidine] | 88% | – | – | – | – | inhibition in vivo at 4 µmol/kg [1]: 14%; inhibition in vivo at 20 µmol/kg [1]: 41%; inhibition in vivo at 5 µmol/kg [2]: 64%; inhibition in vivo at 20 µmol/kg [2]: 70%; MIC [3]: 6 µg/mL (≈ 13.6 µM)
2 | CC(CN1CCC2(CC1)SCCS2)c1ccc(C(=O)c2ccccc2)cc1.Cl (stereo not shown) [Example 24E, 8-[2-(4-benzoylphenyl)propyl]-1,4-dithia-8-azaspiro[4,5]decane hydrochloride] | – | 39 mg/kg | – | – | – | –
3 | CC(C)(CN1CCC2(CC1)OCCO2)c1ccc(C(=O)c2ccccc2)cc1.Cl [Example 24L, 8-[2,2-dimethyl-2-(4-benzoylphenyl)ethyl]-1,4-dioxa-8-azaspiro[4,5]decane hydrochloride] | 24% | 60 mg/kg | 46% | 70% | – | –
4 | CC(C)(CN1CCOCC1)c1cccc(C(=O)c2ccccc2)c1.Cl [Example 24H, 4-[2,2-dimethyl-2-(3-benzoylphenyl)ethyl]morpholine hydrochloride] | – | – | 0% | 22% | 7% | Ach percent inhibition of writhing ([4]; dose 50, s.c.): 13%; Ach percent inhibition of writhing ([4]; dose 150, s.c.): 73%; inhibition in vivo at 324 µmol/kg [2]: 8%
5 | CC(CN1CCCCC1CC1CCCCC1)c1cccc(Cc2ccccc2)c1 (stereo not shown) [Example 10, 2-cyclohexylmethyl-1-[2-(3-benzylphenyl)propyl]piperidine] | 91% | – | 60% | – | – | inhibition in vivo at 5 µmol/kg [1]: 7%; inhibition in vivo at 20 µmol/kg [1]: 26%; inhibition in vivo at 5 µmol/kg [2]: 25%; inhibition in vivo at 20 µmol/kg [2]: 63%; MIC [3]: 6 µg/mL (≈ 15.4 µM)
6 | CC(CN1CCNCC1)c1cccc(C(=O)c2ccccc2)c1.Cl.Cl (stereo not shown) [Example 24G, 1-[2-(3-benzoylphenyl)propyl]piperazine dihydrochloride] | – | 30 mg/kg | 32% | 52% | – | ED50 ([4]; sc): 5.6 mg/kg
7 | CC(C)(CN1CCOCC1)c1ccc(C(=O)c2ccccc2)cc1.Cl [Example 24K, 4-[2,2-dimethyl-2-(4-benzoylphenyl)ethyl]morpholine hydrochloride] | – | 38 mg/kg | 19% | 60% | – | inhibition in vivo at 324 µmol/kg [2]: 7%
8 | CC(CN1CCCCC1C1CCCCC1)c1cccc(C(=O)c2ccccc2)c1 (stereo not shown) [Example 7E, 2-Cyclohexyl-1-[2-(3-benzoylphenyl)propyl]piperidine] | 92% | – | 33% | 58% | 46% | Ach percent inhibition of writhing ([4]; dose 75, s.c.): 93%
9 | CC(CN1CCNCC1)c1ccc(C(=O)c2ccccc2)cc1.Cl.Cl (stereo not shown) [Example 24C, 1-[2-(4-benzoylphenyl)propyl]piperazine dihydrochloride] | – | 20 mg/kg | 16% | 41% | – | inhibition in vivo at 324 µmol/kg [2]: 63%
10 | CC(CN1CCCCC1CCC1CCCCC1)c1cccc(C(=O)c2ccccc2)c1 (stereo not shown) [Example 7F, 2-(2-Cyclohexylethyl)-1-[2-(3-benzoylphenyl)propyl]piperidine] | 91% | – | 33% | 51% | 7% | Ach percent inhibition of writhing ([4]; dose 75, s.c.): 33%; toxicity ([2]; dose 0.16 millimoles/kg): Toxic
11 | CC(C)(CN1CCC2(CC1)OCCO2)c1cccc(C(=O)c2ccccc2)c1.Cl [Example 24J, 8-[2,2-dimethyl-2-(3-benzoylphenyl)ethyl]-1,4-dioxa-8-azaspiro[4,5]decane hydrochloride] | – | – | 6% | 8% | 33% | Ach percent inhibition of writhing ([4]; dose 50, p.o.): 27%; Ach percent inhibition of writhing ([4]; dose 150, p.o.): 53%; inhibition in vivo at 324 µmol/kg [2]: 36%
12 | CC(CN1CCC2(CC1)OCCS2)c1ccc(C(=O)c2ccccc2)cc1.Cl (stereo not shown) [Example 24F, 8-[2-(4-benzoylphenyl)propyl]-1-oxa-4-thia-8-azaspiro[4,5]decane hydrochloride] | – | 18 mg/kg | – | – | – | –
13 | CC(CN1CCSCC1)c1ccc(C(=O)c2ccccc2)cc1 (stereo not shown) [Example 24D, 4-[2-(4-benzoylphenyl)propy]thiomorpholine hydrochloride] | 28% | 50 mg/kg | 61% | 70% | – | –
14 | CC1CCCC(C)N1CCc1cccc(C(O)c2ccccc2)c1 (stereo not drawn) [Example 1B, 2,6-Dimethyl-1-{2-[3-(α-hydroxybenzyl)phenyl]ethyl}piperidine] | – | – | 13% | – | – | inhibition in vivo at 4 µmol/kg [1]: 0%; inhibition in vivo at 20 µmol/kg [1]: 0%; toxicity (entry in C.E. column) ([1]; dose 0.324 millimoles/kg): Toxic; MIC [3]: 50 µg/mL (≈ 155 µM)
15 | CC(CN1CCCCC1CC1CCCCC1)c1cccc(C(O)c2ccccc2)c1 (stereo not drawn) [Example 1, 2-cyclohexylmethyl-1-{2-[3-(α-hydroxybenzyl)phenyl]propyl}piperidine] | 91% | 71 mg/kg | 60% | 73% | 7% | inhibition in vivo at 5 µmol/kg [1]: 13%; inhibition in vivo at 20 µmol/kg [1]: 23%; Ach percent inhibition of writhing ([4]; dose 75, s.c.): 33%; inhibition in vivo at 5 µmol/kg [2]: 56%; inhibition in vivo at 20 µmol/kg [2]: 73%
